In ChEMBL document CHEMBL3885881, “DrugMatrix”:

Organism: Rattus norvegicus
Assay: DrugMatrix - Regimen: Daily Repeat
Type: toxicity, organism-based, Sprague-Dawley
Set-up: regimen Daily Repeat, gender Male, age 6-8 weeks
Conditions: in vivo, po, route oral GAVAGE, vehicle .5 % CMC; for ABSOLUTE BASOPHIL / ABSOLUTE EOSINOPHIL / ABSOLUTE LYMPHOCYTE / ABSOLUTE MONOCYTE / ABSOLUTE SEGMENTED NEUTROPHIL / BASOPHIL / EOSINOPHIL / ERYTHROCYTE COUNT / HEMATOCRIT / HEMOGLOBIN / LEUKOCYTE COUNT / LYMPHOCYTE / MEAN CORPUSCULAR HEMOGLOBIN / MEAN CORPUSCULAR HEMOGLOBIN CONCENTRATION / MEAN CORPUSCULAR VOLUME / MONOCYTE / NEUTROPHIL / NUCLEATED RED BLOOD CELLS / PLATELET COUNT: tissue Blood; for ALANINE AMINOTRANSFERASE / ALBUMIN / ALKALINE PHOSPHATASE / ASPARTATE AMINOTRANSFERASE / BLOOD UREA NITROGEN / CARBON DIOXIDE / CHLORIDE / CHOLESTEROL / CREATINE PHOSPHOKINASE / CREATININE / GLUCOSE / LACTATE DEHYDROGENASE / LIPASE / PHOSPHORUS / POTASSIUM / SODIUM / TOTAL BILIRUBIN / TOTAL PROTEIN / URIC ACID: tissue Plasma
[1] = 0.3 mg/kg, 72 h, dose level Low, time 3 day
[2] = 0.3 mg/kg, 120 h, dose level Low, time 5 day
[3] = 5 mg/kg, 72 h, dose level High, time 3 day
[4] = 5 mg/kg, 120 h, dose level High, time 5 day

Nc1c(CC(=O)O)cccc1C(=O)c1ccc(Br)cc1 [BROMFENAC]
ABSOLUTE BASOPHIL [1]: 0 CELLS/uL | ABSOLUTE EOSINOPHIL [1]: 0 CELLS/uL | ABSOLUTE LYMPHOCYTE [1]: 8435.67 CELLS/uL | ABSOLUTE MONOCYTE [1]: 96.67 CELLS/uL | ABSOLUTE SEGMENTED NEUTROPHIL [1]: 1134.33 CELLS/uL | BASOPHIL [1]: 0% | EOSINOPHIL [1]: 0% | ERYTHROCYTE COUNT [1]: 5.55 x10E6/uL | HEMATOCRIT [1]: 35.1% | HEMOGLOBIN [1]: 13.07 G/DL | LEUKOCYTE COUNT [1]: 9.67 x10E3/uL | LYMPHOCYTE [1]: 88% | MEAN CORPUSCULAR HEMOGLOBIN [1]: 23.57 pg | MEAN CORPUSCULAR HEMOGLOBIN CONCENTRATION [1]: 37.2 G/DL | MEAN CORPUSCULAR VOLUME [1]: 63.33 fL | MONOCYTE [1]: 1% | NEUTROPHIL [1]: 11% | NUCLEATED RED BLOOD CELLS [1]: 0 /100WBC | PLATELET COUNT [1]: 1028.33 x10E3/uL | ALANINE AMINOTRANSFERASE [1]: 48.33 u/L | ALBUMIN [1]: 4.43 G/DL | ALKALINE PHOSPHATASE [1]: 514.33 u/L | ASPARTATE AMINOTRANSFERASE [1]: 96 u/L | BLOOD UREA NITROGEN [1]: 15.67 mg/dL | CARBON DIOXIDE [1]: 31.33 mmol/L | CHLORIDE [1]: 101.5 MEQ/L | CHOLESTEROL [1]: 68.67 mg/dL | CREATINE PHOSPHOKINASE [1]: 316.33 u/L | CREATININE [1]: 0.23 mg/dL | GLUCOSE [1]: 142 mg/dL | LACTATE DEHYDROGENASE [1]: 121.67 u/L | LIPASE [1]: 9.67 u/L | PHOSPHORUS [1]: 11.03 mg/dL | POTASSIUM [1]: 5.91 MEQ/L | SODIUM [1]: 144.65 MEQ/L | TOTAL BILIRUBIN [1]: 0.1 mg/dL | TOTAL PROTEIN [1]: 6.13 G/DL | URIC ACID [1]: 0.67 mg/dL | ABSOLUTE BASOPHIL [2]: 0 CELLS/uL | ABSOLUTE EOSINOPHIL [2]: 0 CELLS/uL | ABSOLUTE LYMPHOCYTE [2]: 10092.67 CELLS/uL | ABSOLUTE MONOCYTE [2]: 194 CELLS/uL | ABSOLUTE SEGMENTED NEUTROPHIL [2]: 1180 CELLS/uL | BASOPHIL [2]: 0% | EOSINOPHIL [2]: 0% | ERYTHROCYTE COUNT [2]: 5.77 x10E6/uL | HEMATOCRIT [2]: 37.27% | HEMOGLOBIN [2]: 13.97 G/DL | LEUKOCYTE COUNT [2]: 11.47 x10E3/uL | LYMPHOCYTE [2]: 87.33% | MEAN CORPUSCULAR HEMOGLOBIN [2]: 24.17 pg | MEAN CORPUSCULAR HEMOGLOBIN CONCENTRATION [2]: 37.5 G/DL | MEAN CORPUSCULAR VOLUME [2]: 64.5 fL | MONOCYTE [2]: 1.33% | NEUTROPHIL [2]: 11.33% | NUCLEATED RED BLOOD CELLS [2]: 0 /100WBC | PLATELET COUNT [2]: 1201.33 x10E3/uL | ALANINE AMINOTRANSFERASE [2]: 48.67 u/L | ALBUMIN [2]: 4.57 G/DL | ALKALINE PHOSPHATASE [2]: 385 u/L | ASPARTATE AMINOTRANSFERASE [2]: 86.33 u/L | BLOOD UREA NITROGEN [2]: 15.67 mg/dL | CARBON DIOXIDE [2]: 35.33 mmol/L | CHLORIDE [2]: 99.67 MEQ/L | CHOLESTEROL [2]: 83.67 mg/dL | CREATINE PHOSPHOKINASE [2]: 586 u/L | CREATININE [2]: 0.2 mg/dL | GLUCOSE [2]: 151 mg/dL | LACTATE DEHYDROGENASE [2]: 148.33 u/L | LIPASE [2]: 9.33 u/L | PHOSPHORUS [2]: 10.9 mg/dL | POTASSIUM [2]: 6.38 MEQ/L | SODIUM [2]: 143.9 MEQ/L | TOTAL BILIRUBIN [2]: 0.2 mg/dL | TOTAL PROTEIN [2]: 6.77 G/DL | URIC ACID [2]: 0.8 mg/dL | ABSOLUTE BASOPHIL [3]: 0 CELLS/uL | ABSOLUTE EOSINOPHIL [3]: 0 CELLS/uL | ABSOLUTE LYMPHOCYTE [3]: 5201.4 CELLS/uL | ABSOLUTE MONOCYTE [3]: 116 CELLS/uL | ABSOLUTE SEGMENTED NEUTROPHIL [3]: 1982.6 CELLS/uL | BASOPHIL [3]: 0% | EOSINOPHIL [3]: 0% | ERYTHROCYTE COUNT [3]: 4.97 x10E6/uL | HEMATOCRIT [3]: 30.78% | HEMOGLOBIN [3]: 11.8 G/DL | LEUKOCYTE COUNT [3]: 7.3 x10E3/uL | LYMPHOCYTE [3]: 72.6% | MEAN CORPUSCULAR HEMOGLOBIN [3]: 23.92 pg | MEAN CORPUSCULAR HEMOGLOBIN CONCENTRATION [3]: 38.52 G/DL | MEAN CORPUSCULAR VOLUME [3]: 62.06 fL | MONOCYTE [3]: 1.8% | NEUTROPHIL [3]: 25.6% | NUCLEATED RED BLOOD CELLS [3]: 0 /100WBC | PLATELET COUNT [3]: 593.4 x10E3/uL | ALANINE AMINOTRANSFERASE [3]: 100 u/L | ALBUMIN [3]: 3.64 G/DL | ALKALINE PHOSPHATASE [3]: 337.8 u/L | ASPARTATE AMINOTRANSFERASE [3]: 193.2 u/L | BLOOD UREA NITROGEN [3]: 10.2 mg/dL | CARBON DIOXIDE [3]: 31.2 mmol/L | CHLORIDE [3]: 103.4 MEQ/L | CHOLESTEROL [3]: 84.6 mg/dL | CREATINE PHOSPHOKINASE [3]: 304.4 u/L | CREATININE [3]: 0.19 mg/dL | GLUCOSE [3]: 147.4 mg/dL | LACTATE DEHYDROGENASE [3]: 116.6 u/L | LIPASE [3]: 8.4 u/L | PHOSPHORUS [3]: 11.14 mg/dL | POTASSIUM [3]: 5.44 MEQ/L | SODIUM [3]: 146.66 MEQ/L | TOTAL BILIRUBIN [3]: 0.14 mg/dL | TOTAL PROTEIN [3]: 5.36 G/DL | URIC ACID [3]: 0.76 mg/dL | ABSOLUTE BASOPHIL [4]: 0 CELLS/uL | ABSOLUTE EOSINOPHIL [4]: 23.5 CELLS/uL | ABSOLUTE LYMPHOCYTE [4]: 8259.25 CELLS/uL | ABSOLUTE MONOCYTE [4]: 191.75 CELLS/uL | ABSOLUTE SEGMENTED NEUTROPHIL [4]: 1625.5 CELLS/uL | BASOPHIL [4]: 0% | EOSINOPHIL [4]: 0.25% | ERYTHROCYTE COUNT [4]: 4.46 x10E6/uL | HEMATOCRIT [4]: 28.57% | HEMOGLOBIN [4]: 11 G/DL | LEUKOCYTE COUNT [4]: 10.1 x10E3/uL | LYMPHOCYTE [4]: 81.75% | MEAN CORPUSCULAR HEMOGLOBIN [4]: 24.82 pg | MEAN CORPUSCULAR HEMOGLOBIN CONCENTRATION [4]: 38.55 G/DL | MEAN CORPUSCULAR VOLUME [4]: 64.3 fL | MONOCYTE [4]: 2% | NEUTROPHIL [4]: 16% | NUCLEATED RED BLOOD CELLS [4]: 0.5 /100WBC | PLATELET COUNT [4]: 1087.25 x10E3/uL | ALANINE AMINOTRANSFERASE [4]: 38.5 u/L | ALBUMIN [4]: 3.65 G/DL | ALKALINE PHOSPHATASE [4]: 255.67 u/L | ASPARTATE AMINOTRANSFERASE [4]: 60 u/L | BLOOD UREA NITROGEN [4]: 13.75 mg/dL | CARBON DIOXIDE [4]: 31.5 mmol/L | CHLORIDE [4]: 101.67 MEQ/L | CHOLESTEROL [4]: 80.25 mg/dL | CREATINE PHOSPHOKINASE [4]: 189 u/L | CREATININE [4]: 0.15 mg/dL | GLUCOSE [4]: 141.25 mg/dL | LACTATE DEHYDROGENASE [4]: 82.25 u/L | LIPASE [4]: 8.25 u/L | PHOSPHORUS [4]: 10.7 mg/dL | POTASSIUM [4]: 5.87 MEQ/L | SODIUM [4]: 145.27 MEQ/L | TOTAL BILIRUBIN [4]: 0.13 mg/dL | TOTAL PROTEIN [4]: 5.8 G/DL | URIC ACID [4]: 0.57 mg/dL
